The values below come from patent US20230183712A1, “METHODS FOR E[…] ACID AMMONIA LYASE ENZYMES AND ENZYMES THEREBY OBTAINED” (priority 2020, published 2023).

Assay [1] concerns the target T1, Anabaena variabilis phenylalanine ammonia-lyase (DM-rAvPAL/AvPAL*; C503S and C565S, SEQ ID NO:2) variant M222L (Trichormus variabilis, UniProt Q3M5Z3, C503S/C565S/M222L).
T1 construct: His-tag (N); made in house; host or cells: E. coli MG1655 rph+
The assay is described as follows: Enzyme kinetics: production of tCA from phe (Michaelis-Menten), mutant M222L. Type of assay: biochemical. To be noted: PBS pH 7.4, 37° C. As to the method: (§1) Enzyme activity assays. The activity of all AvPAL constructs was measured by production of tCA over time. Cultures were sonicated on ice using a Sonifier SFX 150 (Branson Ultrasonics, Danbury, Conn.) (2 s on; 10 s off; 4 min; 55%), and debris was separated from the lysate by centrifuging at 10,000×g for 10 min. Ten microliters of lysate were then mixed with 190 μL of pre-warmed 50 mM phe (Tokyo Chemical Industry, Portland, Oreg.) in phosphate buffered saline (PBS) (137 mM NaCl, 2.7 mM KCl, 10 mM Na2HPO4, 2 mM KH2PO4, pH 7.4) in a 96-well F-bottom UVStar (Greiner Bio-One, Kremsmünster, Austria) microtiter plate. Absorbance at 290 nm was measured every 30 s at 37° C. using a SpectraMax M3 (Molecular Devices) plate reader.
(§2) Each construct included a N-term His-tag used for immobilized metal affinity chromatography (IMAC) purification. Briefly, overnight cell cultures were sonicated in 3 mL Equilibration buffer (300 mM NaCl, 50 mM NaH2PO4, 10 mM imidazole, 15% (w/v) glycerol, pH 8.0). The lysate was loaded onto a prepared column with 2 mL TALON Metal Affinity Resin (Clontech Laboratories, Inc., Mountain View, Calif.). […] Protein concentration was measured by Bradford method using bovine serum albumin (BSA) as the standard.
(§3) Enzyme kinetics. […] The activity of 0.1 μg of protein was measured by the production of tCA over 10 min by recording the absorbance of the reaction mix at 290 nm. […]

Assay [2] addresses T2, Anabaena variabilis phenylalanine ammonia-lyase (DM-rAvPAL/AvPAL*; C503S and C565S, SEQ ID NO:2) variant L4P/G218S (Trichormus variabilis, UniProt Q3M5Z3, C503S/C565S/G218S/L4P).
T2 construct: His-tag (N); made in house; host or cells: E. coli MG1655 rph+
As to the kind of experiment: Enzyme kinetics: production of tCA from phe (Michaelis-Menten), mutant L4P/G218S. It counts as biochemical. The following applies: relative to parental AvPAL*; phe 35 μM to 17.5 mM, PBS pH 7.4, 37° C.; FIG. 4a. The protocol: as §1, §2, §3

Assay [3] deals with E. coli. As to the kind of experiment: Growth of E. coli in media supplemented with tCA. Type of assay: cell-based, Escherichia coli. The following applies: MM^full,opt, 1.5 mM tCA. As to the method:
Microbial strains, plasmids, and growth conditions. All Escherichia coli strains were cultured in lysogeny broth (LB) (VWR International, Randor, Pa.) at 37° C. with rotary shaking at 250 rpm. All media was solidified using 1.5% (w/v) agar (Teknova Inc, Hollister, Calif.). Minimal media (MM) conditions are described in the “Optimization of growth-coupled enrichment” section below. E. coli DH5a was used as a host for the construction of the expression vectors and cultured as above only supplemented with chloramphenicol (25 μg/mL) (RPI Corp). Initial expression in MM was performed in E. coli MG1655(DE3)^ΔendA,ΔrecA and later moved to E. coli MG1655^rph+ for final experiments.
Optimization of growth-coupled enrichment. Growth was measured by seeding cultures at OD600 0.05 and monitoring cell density over time. Initial experiments used a base nitrogen-deficient minimal media (MM^N-) (33.7 mM Na2HPO4, 22 mM KH2PO4, 8.55 mM NaCl, 1 mM MgSO4, 0.1 mM CaCl2), 10 μM FeSO4, 0.4% (v/v) glycerol, 10 μg/mL thiamine, 20 μM IPTG, 12.5 μg/mL chloramphenicol, pH 7.4) that was supplemented with 9.35 mM phe (MM^phe,init) or 9.35 mM NH4Cl) Variable conditions were changed across the parameters outlined in FIG. 2, as well as moving to a more favorable strain for growth in minimal media. […]

SMILES strings stand for the structures.

T1 sequence (Q3M5Z3 whole entry M222L/C503S/C565S, looked up): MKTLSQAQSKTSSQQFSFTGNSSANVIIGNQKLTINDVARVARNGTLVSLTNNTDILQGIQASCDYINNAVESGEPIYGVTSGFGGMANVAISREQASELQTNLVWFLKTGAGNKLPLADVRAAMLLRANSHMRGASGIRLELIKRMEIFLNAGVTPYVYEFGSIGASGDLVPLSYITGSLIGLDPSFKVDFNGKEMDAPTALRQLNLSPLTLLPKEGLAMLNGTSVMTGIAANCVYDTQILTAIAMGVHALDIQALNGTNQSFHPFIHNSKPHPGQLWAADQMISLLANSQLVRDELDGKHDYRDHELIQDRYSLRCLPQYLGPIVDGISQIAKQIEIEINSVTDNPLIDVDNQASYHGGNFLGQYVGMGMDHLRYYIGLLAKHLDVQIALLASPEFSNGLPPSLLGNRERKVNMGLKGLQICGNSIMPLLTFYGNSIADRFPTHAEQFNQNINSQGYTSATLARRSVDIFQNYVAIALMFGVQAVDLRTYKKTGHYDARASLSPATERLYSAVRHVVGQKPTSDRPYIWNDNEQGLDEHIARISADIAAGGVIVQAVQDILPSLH
T2 sequence (Q3M5Z3 whole entry L4P/G218S/C503S/C565S, looked up): as the sequence (Q3M5Z3 whole entry M222L/C503S/C565S, looked up) above, with L4P, G218S, L222M counted along it

As for `N[C@@H](Cc1ccccc1)C(=O)O` [phe, phenylalanine], the “catalytic efficiency (relative to AvPAL*)” value in assay [1] (compared to AvPAL*) is “improved catalytic efficiency”. Moreover, the “kcat (increase over parental AvPAL*)” value in assay [1] (relative to parental AvPAL*, phe 35 μM to 17.5 mM, FIG. 4a) is recorded as 70-80%; in assay [2] it was 70-80%. Besides, the “KM (fold higher than parent)” value in assay [2] is ~2.5 ×.
In the case of `O=C(O)/C=C/c1ccccc1` [tCA, trans-cinnamic acid], the “growth of cells supplemented with tCA” value in assay [3] was “impaired growth”.
